Laboratory results: patent US20120165339A1, “CYCLOPROPANE DERIVATIVES” (EISAI R&D MANAGEMENT CO., LTD., priority 2010, published 2012)
Where two headings read alike, the source gives them in different places.

How the values were obtained:
[1] = target: T1, OX1 (Homo sapiens, UniProt O43613); test: Orexin-receptor binding ability, [125I]-OX-A, CHO cell membranes expressing OX1; parameters: expressed in transfected cells; host or cells: CHO cells (membrane preparation)
T1 sequence (O43613 1-425): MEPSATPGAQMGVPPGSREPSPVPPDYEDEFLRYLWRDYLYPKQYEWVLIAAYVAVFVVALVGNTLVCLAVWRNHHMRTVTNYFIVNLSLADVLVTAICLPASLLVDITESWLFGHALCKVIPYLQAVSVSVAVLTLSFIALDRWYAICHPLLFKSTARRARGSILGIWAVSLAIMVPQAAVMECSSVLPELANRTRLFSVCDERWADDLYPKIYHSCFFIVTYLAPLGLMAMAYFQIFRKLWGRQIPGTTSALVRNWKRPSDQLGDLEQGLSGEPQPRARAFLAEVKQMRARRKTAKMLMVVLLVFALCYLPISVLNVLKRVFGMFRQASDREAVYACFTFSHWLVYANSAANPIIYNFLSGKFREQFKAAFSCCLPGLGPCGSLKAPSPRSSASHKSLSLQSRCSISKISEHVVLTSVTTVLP
Procedure: (§1) The assay was carried out using a 96-well Wheat Germ Agglutinin Flash Plate (PerkinElmer). The volume in a single assay well was 100 ul, and the composition of the reaction solution was as follows:
(§2) 25 mM HEPES (pH 7.5), 1 mM CaCl2, 4.5 mM MgCl2, 0.5% BSA (bovine serum albumin), 0.1% sodium azide, 0.05% Tween-20, and 0.2% DMSO.
Cell membranes were prepared from recombinant CHO cells that expressed OX2 or OX1. The cell membranes were used in an amount of 5 μg protein/assay. […] Finally, the radioactivity of each well was measured using a scintillation counter (TopCount, PerkinElmer). The obtained results are shown in terms of IC50 values (nM) in the following table.

[2] = target: T2, OX2 (Homo sapiens, UniProt O43614); test: Orexin-receptor binding ability, [125I]-OX-A, CHO cell membranes expressing OX2; parameters: expressed in transfected cells; host or cells: CHO cells (membrane preparation)
T2 sequence (O43614 1-444): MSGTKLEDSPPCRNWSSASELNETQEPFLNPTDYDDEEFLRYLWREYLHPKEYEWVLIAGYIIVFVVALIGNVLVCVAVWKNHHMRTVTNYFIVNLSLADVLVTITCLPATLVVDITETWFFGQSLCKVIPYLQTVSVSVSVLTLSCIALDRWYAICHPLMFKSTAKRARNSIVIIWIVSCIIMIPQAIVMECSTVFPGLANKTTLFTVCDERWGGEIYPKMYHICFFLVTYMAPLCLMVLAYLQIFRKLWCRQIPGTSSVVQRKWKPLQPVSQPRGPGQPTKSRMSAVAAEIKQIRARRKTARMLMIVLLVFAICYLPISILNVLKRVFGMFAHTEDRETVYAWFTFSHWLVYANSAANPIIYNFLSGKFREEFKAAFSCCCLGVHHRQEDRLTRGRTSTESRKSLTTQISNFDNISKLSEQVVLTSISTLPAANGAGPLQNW
Procedure: as §1, §2
Cell membranes were prepared from recombinant CHO cells that expressed OX2 or OX1. The cell membranes were used in an amount of 5 μg protein/assay. Test compound in various concentrations, and 0.2 nM [^125I]-OX-A as tracer were added to the cell membranes, and then allowed to react at room temperature for 30 minutes. After completion of the reaction, the reaction solution as a whole was discarded, and the wells were then washed once with 200 ul of wash buffer (25 mM HEPES (pH 7.5), 1 mM CaCl2, 5 mM MgCl2, 0.5% BSA, 0.1% sodium azide, 0.05% Tween-20, and 525 mM sodium chloride). Finally, the radioactivity of each well was measured using a scintillation counter (TopCount, PerkinElmer). The obtained results are shown in terms of IC50 values (nM) in the following table.

[3] = target: T1, OX1; test: Antagonism PLAP reporter assay, HEK-293 cells expressing human OX1; assay type: cell-based; parameters: expressed in transfected cells; host or cells: HEK-293 cell line, expression vector pBabeCLIH; conditions: HEK-293, 1 nM human OX-A; IC50 converted to Ki by Cheng-Prusoff equation
Procedure: (§3) The antagonistic function of the compound of the present invention to prevent the activation of OX2 and OX1 by orexin-A (OX-A), which is a natural peptide agonist, was measured using a cell-based reporter assay. A HEK-293 cell line expressing genetically recombinant human OX2 (accession No. NM_001526.3) or a HEK-293 cell line expressing genetically recombinant human OX1 (accession No. NM_001525.2), which had pBabeCLIH as expression vector, was used. The cells were plated at a density of 10,000 cells/well onto a non-coated 96-well plate in Dulbecco's modified Eagle medium (Sigma Cat No. D6046: 10% v/v heat-inactivated fetal bovine serum was contained). The cells were cultured at 37° C. overnight, so that they could adhere to the plate. On the following day, cells were incubated with a compound of the present invention dissolved in Dulbecco's modified Eagle medium (Sigma Cat No. A8806: 0.1% w/v bovine serum albumin was contained), and added to the cell plate to reach a final concentration of 0.1% dimethyl sulfoxide.
(§4) The thus obtained mixture was incubated at room temperature for 1 hour. Thereafter, human OX-A and forskolin were dissolved in the same medium as described above, which contained fetal bovine serum albumin, and the medium was then added to the cells, resulting in a final concentration of 300 nM forskolin. Subsequently, the cells were cultured at 37° C. for approximately 18 to 24 hours. During the culture, as a result of activation of the orexin receptor and subsequent dose-dependent increase in intracellular calcium concentration, a reporter enzyme, placental alkaline phosphatase (PLAP), was expressed under the control of a CRE x4+VIP promoter in a pBabeCLcre4vPdNN vector and secreted into the culture medium supernatant. On the following day, reporter enzyme activity was detected by mixing 5 ul of the culture medium supernatant with 20 ul of detection buffer (containing 1.34 g/L sodium bicarbonate, 1.27 g/L sodium carbonate and 0.2 g/L magnesium sulfate heptahydrate in water) and 25 ul of Lumi-Phos530 reagent (Wako Pure Chemical Industries Ltd.), followed by incubating the obtained mixture light-protected at room temperature for 2 hours, before performing luminescence measurement (ARVO Reader, PerkinElmer). The Kd value of human OX-A with respect to each receptor was measured by titration from 0 to 300 nM. Then, the IC50 value of the compound of the present invention with respect to the activity of 1 nM human OX-A was converted into a Ki value (nM) using the Cheng-Prusoff equation.

[4] = target: T2, OX2; test: Antagonism PLAP reporter assay, HEK-293 cells expressing human OX2; assay type: cell-based; parameters: expressed in transfected cells; host or cells: HEK-293 cell line, expression vector pBabeCLIH; conditions: HEK-293, 1 nM human OX-A; IC50 converted to Ki by Cheng-Prusoff equation
Procedure: as §3, §4

[5] = membranes of recombinant CHO cells, 0.2 nM [125I]-OX-A tracer, read-out: OX1 (IC50)
[6] = membranes of recombinant CHO cells, 0.2 nM [125I]-OX-A tracer, read-out: OX2 (IC50)

Compound	IC50 [1] [nM]	IC50 [2] [nM]	Ki [3] [nM]	Ki [4] [nM]	IC50 [1, 5] [nM]	IC50 [2, 6] [nM]
COc1ccc(OCC2(c3ccccc3)CC2C(=O)Nc2ccc(F)nc2)cc1OC (centres unmarked) [Example 26]	27	43	70	12.8		
COc1ccc(OCC2(c3ccccc3)CC2C(=O)Nc2cccc(F)n2)cc1OC (centres unmarked) [Example 27, N-(6-fluoropyridin-2-yl)-2-[(3,4-dimethoxyphenyl)oxymethyl]-2-phenylcyclopropanecarboxamide]	37	4	98	3.4		
COc1ccc(OCC2(c3ccccc3)CC2C(=O)Nc2cc(Cl)ccn2)cc1OC (centres unmarked) [Example 28, N-(4-chloropyridin-2-yl)-2-[(3,4-dimethoxyphenyl)oxymethyl]-2-phenylcyclopropanecarboxamide]			73.8	11	38	25
COc1cccc(NC(=O)C2CC2(COc2ccc(OC)c(OC)c2)c2ccccc2)c1 (centres unmarked) [Example 34, N-(3-methoxyphenyl)-2-[(3,4-dimethoxyphenyl)oxymethyl]-2-phenylcyclopropanecarboxamide]			24	4.5	20	6
COc1ccc(OCC2(c3ccccc3)CC2C(=O)Nc2ccccc2-c2nnc[nH]2)cc1OC (centres unmarked) [Example 35, N-[2-(1H-1,2,4-triazol-3-yl)phenyl]-2-[(3,4-dimethoxyphenyl)oxymethyl]-2-phenylcyclopropanecarboxamide]			1900	122	2040	47
COc1ccc(OCC2(c3ccccc3)CC2C(=O)Nc2cc(C)ccn2)cc1OC (centres unmarked) [Example 36, N-(4-methylpyridin-2-yl)-2-[(3,4-dimethoxyphenyl)oxymethyl]-2-phenylcyclopropanecarboxamide]			699	43	283	22
COc1ccc(OCC2(c3ccccc3)CC2C(=O)Nc2cccc(C)n2)cc1OC (centres unmarked) [Example 37, N-(6-methylpyridin-2-yl)-2-[(3,4-dimethoxyphenyl)oxymethyl]-2-phenylcyclopropanecarboxamide]			593	14	403	18
COc1ccc(OCC2(c3ccccc3)CC2C(=O)Nc2cc(C)ns2)cc1OC (centres unmarked) [Example 40, N-(3-methylisothiazol-5-yl)-2-[(3,4-dimethoxyphenyl)oxymethyl]-2-phenylcyclopropanecarboxamide]			752	51.5	1050	36
COc1ccc(OC[C@@]2(c3ccccc3)C[C@H]2C(=O)Nc2ccccn2)cc1OC [Example 41, (1R,2S)—N-(pyridin-2-yl)-2-[(3,4-dimethoxyphenyl)oxymethyl]-2-phenylcyclopropanecarboxamide]			297	24.8	374	35
CCn1cc(OCC2(c3ccccc3)CC2C(=O)Nc2ccc(Cl)cn2)ccc1=O (centres unmarked) [Example 54, N-(5-chloropyridin-2-yl)-2-[(1-ethyl-6-oxo-1,6-dihydropyridin-3-yl)oxymethyl]-2-phenylcyclopropanecarboxamide]			37.5	0.8	61	3
CCn1cc(OCC2(c3ccccc3)CC2C(=O)Nc2ccc(C#N)cn2)ccc1=O (centres unmarked) [Example 55]			> 467	43.6	675	33
CCn1nc(C)cc1OCC1(c2ccccc2)CC1C(=O)Nc1ccc(Cl)cn1 (centres unmarked) [Example 57]			> 467	31.7	483	46
CCn1nc(C)cc1OCC1(c2ccccc2)CC1C(=O)Nc1ccc(F)cn1 (centres unmarked) [Example 58]			> 467	20.9	467	45
Cc1noc2cc(OCC3(c4ccccc4)CC3C(=O)Nc3ccc(C#N)cn3)ccc12 (centres unmarked) [Example 61]			275	32.9	520	70
Cc1ccc(OCC2(c3ccccc3)CC2C(=O)Nc2ccc(Cl)cn2)c(C)n1 (centres unmarked) [Example 62]			481	30.2	44	61
CCn1nc(C)c(Cl)c1OCC1(c2ccccc2)CC1C(=O)Nc1ccc(F)cn1 (centres unmarked) [Example 74]			> 467	30.7	359	30
CCn1nc(C)c(Cl)c1OCC1(c2ccccc2)CC1C(=O)Nc1ccc(Cl)cn1 (centres unmarked) [Example 75]			> 816	30.8	477	26
COc1cc(F)c(OCC2(c3ccccc3)CC2C(=O)Nc2ccccn2)cc1OC (centres unmarked) [Example 78]		20	342	19.2	212	
CCn1cc(OCC2(c3ccccc3)CC2C(=O)Nc2ccc(F)cn2)c(C)n1 (centres unmarked) [Example 79, N-(5-fluoropyridin-2-yl)-2-[(1-ethyl-3-methyl-1H-pyrazol-4-yl)oxymethyl]-2-phenylcyclopropanecarboxamide]			275	10.5	213	54
CCn1cc(OCC2(c3ccccc3)CC2C(=O)Nc2ccc(C#N)cn2)cn1 (centres unmarked) [Example 80]			> 467	190	359	54
